Results taken from US20260234139A1, “PGDH INHIBITORS AND METHODS OF MAKING AND USING” (Epirium Bio Inc., priority 2023, published 2026).
pEC50, pIC50: −log10 of the molar value.

Tests used:
[1] = target: T1, 15-PGDH/HPGD (Homo sapiens, UniProt P15428); test: hPGDH inhibitor screening biochemical assay; details: 10 nM enzyme, 15 μM Prostaglandin E2, 0.25 mM NAD, fluorescence ex/em 340/485 nm
T1 construct: purchased R&D System 5660-DH
T1 sequence (P15428 1-266): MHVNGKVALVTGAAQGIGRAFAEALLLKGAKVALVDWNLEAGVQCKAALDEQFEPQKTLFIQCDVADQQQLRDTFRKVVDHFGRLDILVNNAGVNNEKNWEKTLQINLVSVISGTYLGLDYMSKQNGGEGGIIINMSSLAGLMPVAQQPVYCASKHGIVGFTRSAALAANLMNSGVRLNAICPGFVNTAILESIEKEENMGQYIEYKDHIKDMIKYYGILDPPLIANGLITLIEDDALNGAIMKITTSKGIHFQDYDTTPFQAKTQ
How it was run: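 Recombinant 15-PGDH (10 nM) preincubated with compound 10 min at 37° C, then 15 μM PGE2 and 0.25 mM NAD⁺ added for 10 min at room temperature in 50 mM Tris-HCl pH 7.5, 0.01% Tween 20. NADH fluorescence at ex/em 340/485 nm; 10-point dose response.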

[2] = system: A549; test: A549 EC50 (cell assay, method not described); format: cell-based; details: Homo sapiens, A549, A549

SMILES	pIC50 [1]	pEC50 [2]
O[C@@H](c1cnc2c(cnn2-c2cccc(-c3nnc[nH]3)c2)c1)[C@@H]1CCOC1 [Compound 68A]	> 7.00	> 7.00
O[C@H](c1cnc2c(cnn2-c2cccc(-c3nnc[nH]3)c2)c1)[C@H]1CCOC1 [Compound 68B]	> 7.00	> 7.00
O[C@@H](c1cnc2c(cnn2-c2cccc(-c3nnc[nH]3)c2)c1)[C@H]1CCOC1 [Compound 68C]	> 7.00	> 7.00
O[C@H](c1cnc2c(cnn2-c2cccc(-c3nnc[nH]3)c2)c1)[C@@H]1CCOC1 [Compound 68D]	> 7.00	6.00 to 7.00
CC(C)OC[C@@H](O)c1cnc2c(cnn2-c2ccc(CCC(=O)O)cc2)c1 [Compound 69A]	> 7.00	> 7.00
CC(C)OC[C@H](O)c1cnc2c(cnn2-c2ccc(CCC(=O)O)cc2)c1 [Compound 69B]	6.00 to 7.00	6.00 to 7.00
CC(C)OC[C@@H](O)c1cnc2c(cnn2-c2ccc(CC(=O)O)cc2)c1 [Compound 71A]	6.00 to 7.00	6.00 to 7.00
CC(C)OC[C@H](O)c1cnc2c(cnn2-c2ccc(CC(=O)O)cc2)c1 [Compound 71B]	≤ 6.00	≤ 6.00
O=C(O)c1ccc(-n2ncc3cc([C@H](O)C4(OCC(F)F)CC4)cnc32)cc1 [Compound 72A]	> 7.00	6.00 to 7.00
O=C(O)c1ccc(-n2ncc3cc([C@@H](O)C4(OCC(F)F)CC4)cnc32)cc1 [Compound 72B]	≤ 6.00	≤ 6.00
O[C@H](c1cnc2c(cnn2-c2cccc(-c3nnc[nH]3)c2)c1)C1(OCC(F)F)CC1 [Compound 73A]	> 7.00	6.00 to 7.00
O[C@@H](c1cnc2c(cnn2-c2cccc(-c3nnc[nH]3)c2)c1)C1(OCC(F)F)CC1 [Compound 73B]	≤ 6.00	≤ 6.00
CC(C)OC[C@@H](O)c1cnc2c(cnn2-c2ccc(OCC(=O)O)c(F)c2)c1 [Compound 74A]	> 7.00	6.00 to 7.00
CC(C)OC[C@H](O)c1cnc2c(cnn2-c2ccc(OCC(=O)O)c(F)c2)c1 [Compound 74B]	6.00 to 7.00	≤ 6.00
O[C@H](COC1CCC1)c1cnc2c(cnn2-c2ccc(N3CCCC3)cc2)c1 [Compound 75A]	6.00 to 7.00	6.00 to 7.00
O[C@@H](COC1CCC1)c1cnc2c(cnn2-c2ccc(N3CCCC3)cc2)c1 [Compound 75B]	≤ 6.00	≤ 6.00
O[C@@H](COC1CCC1)c1cnc2c(cnn2-c2ccc(N3CCOCC3)cc2)c1 [Compound 76A]	6.00 to 7.00	≤ 6.00
O[C@H](COC1CCC1)c1cnc2c(cnn2-c2ccc(N3CCOCC3)cc2)c1 [Compound 76B]	≤ 6.00	≤ 6.00
CC(C)OC[C@@H](O)c1cnc2c(cnn2-c2ccc(CCCC(=O)O)c(F)c2)c1 [Compound 77A]	> 7.00	> 7.00
CC(C)OC[C@H](O)c1cnc2c(cnn2-c2ccc(OCC(=O)O)cc2)c1 [Compound 78A]	6.00 to 7.00	≤ 6.00
O[C@H](COC1CCC1)c1cnc2c(cnn2-c2ccc(-c3nnn[nH]3)cc2)c1 [Compound 79A]	> 7.00	6.00 to 7.00
CN(C)C(=O)c1ccc(-n2ncc3cc([C@H](O)COC4CCC4)cnc32)cc1 [Compound 80A]	> 7.00	> 7.00
CN(C)C(=O)c1ccc(-n2ncc3cc([C@@H](O)COC4CCC4)cnc32)cc1 [Compound 80B]	≤ 6.00	≤ 6.00
NC(=O)c1ccc(-n2ncc3cc([C@H](O)COC4CCC4)cnc32)cc1 [Compound 81A]	> 7.00	> 7.00
NC(=O)c1ccc(-n2ncc3cc([C@@H](O)COC4CCC4)cnc32)cc1 [Compound 81B]	> 7.00	6.00 to 7.00
O=C(O)CCc1ccc(-n2ncc3cc([C@@H](O)COC4CCC4)cnc32)cc1F [Compound 82A]	> 7.00	6.00 to 7.00
CCOC1([C@H](O)c2cnc3c(cnn3-c3cccc(-c4nnc[nH]4)c3)c2)CCC1 [Compound 83A]	6.00 to 7.00	6.00 to 7.00
